Measured values: patent US20100324049A1, “DIARYL KETIMINE DERIVATIVE HAVING ANTAGONISM AGAINST MELANIN-CONCENTRATING HORMONE RECEPTOR” (priority 2007, published 2010)

Target: T1, human MCH-1R (Homo sapiens, UniProt Q99705)
T1 construct: expressed in transfected cells; host or cells: CHO-K1 (American Type Culture Collection), plasmid vector pEF/myc/cyto
Assay: MCH binding inhibition test
Details: inhibition of specific [125I]MCH (50 pM) binding; membrane specimen from MCH-1R-expressing CHO-K1 cells; 25° C., 1 hour
Text: A cDNA sequence encoding human MCH-1R [FEBS Letters, Vol. 398, 253 (1996); Biochimica et Biophisica Acta, Vol. 1401, 216 (1998)] was cloned into a plasmid vector pEF/myc/cyto (manufactured by In Vitro Gene). The expression plasmid thus obtained was transfected into host cells CHO-K1 (American Type Culture Collection) by using lipofectAMINE PLUS reagent (manufactured by Life Technologies) to thereby give MCH-1R-expressing cells.
A membrane specimen prepared from the MCH-1R-expressing cells was incubated together with a test compound and 50 pM of [^125I]MCH (manufactured by NEN) in an assay buffer (a 50 mM Tris buffer (pH7.4) containing 10 mM of magnesium chloride, 2 mM of ethylenediaminetetracetic acid, 0.01% of bacitracin and 0.2% of bovine serum albumin) at 25° C. for 1 hour, and then filtered through a glass filter GF/C (manufactured by Whatman). After washing the glass filter with a 50 mM Tris buffer (pH7.4) containing 10 mM of magnesium chloride, 2 mM of ethylenediaminetetracetic acid and 0.04% of Tween-20, the radioactivity on the glass filter was determined. Nonspecific binding was measured in the presence of 1 μM human MCH and the 50% inhibitory concentration (IC50) of the test compound to the specific binding to [^125I]MCH was determined. Table 1 indicates the results.

T1 sequence (Q99705 whole entry): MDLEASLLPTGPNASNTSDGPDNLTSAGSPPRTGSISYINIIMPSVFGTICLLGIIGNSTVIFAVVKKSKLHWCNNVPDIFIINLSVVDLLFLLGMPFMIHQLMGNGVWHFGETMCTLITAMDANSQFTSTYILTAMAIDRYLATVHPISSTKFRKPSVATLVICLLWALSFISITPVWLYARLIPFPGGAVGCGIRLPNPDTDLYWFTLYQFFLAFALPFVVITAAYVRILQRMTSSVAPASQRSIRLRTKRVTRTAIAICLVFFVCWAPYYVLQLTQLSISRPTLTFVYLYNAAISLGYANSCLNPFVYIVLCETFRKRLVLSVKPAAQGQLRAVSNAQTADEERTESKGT

Row | SMILES | IC50
1 | CCO/N=C(\c1ccc(F)c(F)c1)c1ccc(CN2CCC(c3ccn4ccnc4c3)CC2)cn1 [Example 3-26, (E)-(3,4-Difluorophenyl){5-[(4-imidazo[1,2-a]pyridin-7-ylpiperidin-1-yl)methyl]pyridin-2-yl)methanone O-ethyloxime] | 0.27 nM
2 | CC(C)(O)CO/N=C(\c1ccc(F)c(F)c1)c1ccc(CN2CCC(c3cnn4ncccc34)CC2)cn1 [Example 3-51, (E)-(3,4-Difluorophenyl){5-[(4-pyrazolo[1,5-b]pyridazin-3-ylpiperidin-1-yl)methyl]pyridin-2-yl}methanone O-(2-hydroxy-2-methylpropyl)oxime] | 11.2 nM

Further compounds by falling IC50, results first:

Row | IC50 | SMILES
3 | 9.7 nM | Fc1ccc(C2CCN(Cc3cnc(/C(=N/OC4CC4)c4ccc(F)c(F)c4)nc3)CC2)cn1 [Example 4-1, (E)-(3,4-difluorophenyl)(5-{[4-(6-fluoropyridin-3-yl)piperidin-1-yl]methyl}pyrimidin-2-yl)methanone-O-cyclopropyloxime]
4 | 6.7 nM | CS(=O)(=O)CO/N=C(\c1ccc(F)c(F)c1)c1ccc(CN2CCC(c3ccc(F)nc3)CC2)cn1 [Example 3-53, (E)-(3,4-Difluorophenyl)(5-{[4-(6-fluoropyridin-3-yl)piperidin-1-yl]methyl}pyridin-2-yl)methanone O-[(methylsulfonyl)methyl]oxime]
5 | 0.11 nM | CCO/N=C(\c1ccc(F)c(F)c1)c1ccc(CN2CCC(c3cn(C)c4cnccc34)CC2)cn1 [Example 3-33, (E)-(3,4-Difluorophenyl)(5-{[4-(1-methyl-1H-pyrrolo[2,3-c]pyridin-3-yl)piperidin-1-yl]methyl}pyridin-2-yl)methanone O-ethyloxime]
